This is an account of results in ChEMBL document CHEMBL1136905, “Substituted isoxazole analogs of farnesoid X receptor (FXR) agonist GW4064” (Bioorg Med Chem Lett, 2009).

The nature of data set [1]: Oral bioavailability in rat. It counts as ADME, organism-based. The settings on record: in vivo.
Data set [2] addresses T1, Bile acid receptor (Homo sapiens) (UniProt Q96RI1).
T1 sequence (whole entry): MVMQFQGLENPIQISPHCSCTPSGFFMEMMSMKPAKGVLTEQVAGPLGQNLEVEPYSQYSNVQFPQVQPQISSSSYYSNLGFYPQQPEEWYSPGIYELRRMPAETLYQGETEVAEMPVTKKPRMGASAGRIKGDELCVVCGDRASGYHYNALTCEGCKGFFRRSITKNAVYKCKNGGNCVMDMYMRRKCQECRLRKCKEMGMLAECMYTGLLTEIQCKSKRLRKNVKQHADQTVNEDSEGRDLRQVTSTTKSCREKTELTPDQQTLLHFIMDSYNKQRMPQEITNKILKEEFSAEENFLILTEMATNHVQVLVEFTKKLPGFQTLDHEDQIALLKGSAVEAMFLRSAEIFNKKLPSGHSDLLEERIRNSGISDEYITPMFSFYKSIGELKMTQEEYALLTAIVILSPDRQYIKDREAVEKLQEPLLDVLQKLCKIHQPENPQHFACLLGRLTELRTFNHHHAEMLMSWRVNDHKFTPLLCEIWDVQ
In words: Agonist activity at human FXR transfected in african green monkey CV1 cells by luciferase reporter gene transient transfection assay relative to GW-4064. As to conditions: CV-1. Format: functional, cell-based.

A short description of data set [3]: Terminal half life in iv dosed rat. As to conditions: in vivo, read-out: beta t1/2. It counts as ADME, organism-based.
Data set [4] can be described thus: Total clearance in iv dosed rat. It counts as ADME, organism-based. The settings on record: in vivo.
Data set [5] can be described thus: Volume of distribution at steady state in iv dosed rat. Format: ADME, organism-based. As to conditions: in vivo, read-out: Vdss.
For data set [6], the target named is T2, Bile acid receptor (Homo sapiens, UniProt Q96RI1).
T2 sequence (Q96RI1 whole entry): T1 sequence (whole entry)
The data set can be described thus: Agonist activity at human FXR transfected in african green monkey CV1 cells by luciferase reporter gene transient transfection assay. It counts as functional, cell-based, CV-1.

The target in data set [7] is T2, Bile acid receptor. The data set can be described thus: Agonist activity at human FXR assessed as SRC1 peptide interaction with receptor ligand binding domain by FRET assay.
The target of data set [8] is T1, Bile acid receptor (Homo sapiens). The data set can be described thus: Agonist activity at human FXR assessed as SRC1 peptide interaction with receptor ligand binding domain by FRET assay relative to GW-4064.
Data set [9] concerns the target T2, Bile acid receptor. In words: Agonist activity at human FXR assessed as SRC1 coactivator peptide recruitment by cell free FRET assay. Format: functional.
In data set [10] the target is T3, Nuclear receptor subfamily 5 group A member 2 (Homo sapiens, UniProt O00482). In words: Activity at LRH assessed as coactivator peptide interaction with receptor ligand binding domain by FRET assay relative to standard control.
T3 sequence (O00482 whole entry, the tested form may be a part): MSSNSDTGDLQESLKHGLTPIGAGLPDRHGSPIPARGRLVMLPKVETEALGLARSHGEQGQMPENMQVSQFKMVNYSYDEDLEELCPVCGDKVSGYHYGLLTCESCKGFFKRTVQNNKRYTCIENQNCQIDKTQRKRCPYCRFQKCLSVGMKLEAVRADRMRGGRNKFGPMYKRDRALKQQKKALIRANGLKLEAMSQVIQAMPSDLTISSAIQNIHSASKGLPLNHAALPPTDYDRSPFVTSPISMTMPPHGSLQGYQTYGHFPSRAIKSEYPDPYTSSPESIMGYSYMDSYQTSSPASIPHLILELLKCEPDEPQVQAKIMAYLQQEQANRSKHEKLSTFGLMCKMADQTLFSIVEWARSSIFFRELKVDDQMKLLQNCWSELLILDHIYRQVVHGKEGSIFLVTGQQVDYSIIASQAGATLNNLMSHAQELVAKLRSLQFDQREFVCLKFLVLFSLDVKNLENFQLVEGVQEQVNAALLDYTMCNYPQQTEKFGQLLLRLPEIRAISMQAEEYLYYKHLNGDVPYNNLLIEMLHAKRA
Data set [11] can be described thus: Selectivity ratio of XC50 for LXRalpha to EC50 for human FXR.
Data set [12] concerns the target T3, Nuclear receptor subfamily 5 group A member 2. The data set can be described thus: Activity at LRH assessed as coactivator peptide interaction with receptor ligand binding domain by FRET assay.
The target in data set [13] is T4, PXR (Nuclear receptor subfamily 1 group I member 2) (Homo sapiens, UniProt O75469).
T4 sequence (O75469 whole entry): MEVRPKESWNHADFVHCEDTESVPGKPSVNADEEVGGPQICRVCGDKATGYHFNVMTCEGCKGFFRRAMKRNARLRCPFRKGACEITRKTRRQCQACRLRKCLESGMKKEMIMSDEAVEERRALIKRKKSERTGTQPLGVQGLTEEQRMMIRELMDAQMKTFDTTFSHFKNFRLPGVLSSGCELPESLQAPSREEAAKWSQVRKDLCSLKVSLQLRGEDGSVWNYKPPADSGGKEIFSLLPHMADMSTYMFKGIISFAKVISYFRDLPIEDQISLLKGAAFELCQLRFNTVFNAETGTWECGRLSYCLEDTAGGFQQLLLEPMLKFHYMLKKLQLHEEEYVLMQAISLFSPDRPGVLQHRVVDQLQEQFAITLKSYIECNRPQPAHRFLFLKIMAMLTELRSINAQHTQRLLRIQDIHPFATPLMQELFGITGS
In words: Activity at PXR assessed as coactivator peptide interaction with receptor ligand binding domain by scintillation proximity assay.

Data set [14] is described as follows: Selectivity ratio of XC50 for PXR to EC50 for human FXR.
In data set [15] the target is T4, PXR (Nuclear receptor subfamily 1 group I member 2). In words: Activity at PXR assessed as coactivator peptide interaction with receptor ligand binding domain by scintillation proximity assay relative to standard control. The settings on record: read-out: %max.
Data set [16] addresses T5, Nuclear receptor ROR-alpha (Homo sapiens, UniProt P35398).
T5 sequence (P35398 whole entry): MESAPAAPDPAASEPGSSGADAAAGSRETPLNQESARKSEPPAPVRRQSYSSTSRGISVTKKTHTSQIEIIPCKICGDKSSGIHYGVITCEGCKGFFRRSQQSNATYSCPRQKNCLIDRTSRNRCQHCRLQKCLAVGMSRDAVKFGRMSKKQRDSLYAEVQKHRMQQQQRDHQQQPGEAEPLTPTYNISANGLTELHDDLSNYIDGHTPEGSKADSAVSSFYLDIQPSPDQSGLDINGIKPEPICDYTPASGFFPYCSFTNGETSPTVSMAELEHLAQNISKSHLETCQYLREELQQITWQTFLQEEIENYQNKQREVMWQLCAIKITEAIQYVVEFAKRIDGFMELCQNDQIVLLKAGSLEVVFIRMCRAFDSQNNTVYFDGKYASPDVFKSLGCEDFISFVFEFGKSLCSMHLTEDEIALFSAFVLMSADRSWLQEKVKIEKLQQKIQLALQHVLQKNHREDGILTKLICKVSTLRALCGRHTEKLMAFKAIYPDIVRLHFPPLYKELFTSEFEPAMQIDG
The data set can be described thus: Activity at RORalpha assessed as coactivator peptide interaction with receptor ligand binding domain by FRET assay.

Data set [17] in a line: Selectivity ratio of XC50 for LRH to EC50 for human FXR.
Data set [18] has as its target T6, Oxysterols receptor LXR-beta (Homo sapiens, UniProt P55055).
T6 sequence (P55055 whole entry): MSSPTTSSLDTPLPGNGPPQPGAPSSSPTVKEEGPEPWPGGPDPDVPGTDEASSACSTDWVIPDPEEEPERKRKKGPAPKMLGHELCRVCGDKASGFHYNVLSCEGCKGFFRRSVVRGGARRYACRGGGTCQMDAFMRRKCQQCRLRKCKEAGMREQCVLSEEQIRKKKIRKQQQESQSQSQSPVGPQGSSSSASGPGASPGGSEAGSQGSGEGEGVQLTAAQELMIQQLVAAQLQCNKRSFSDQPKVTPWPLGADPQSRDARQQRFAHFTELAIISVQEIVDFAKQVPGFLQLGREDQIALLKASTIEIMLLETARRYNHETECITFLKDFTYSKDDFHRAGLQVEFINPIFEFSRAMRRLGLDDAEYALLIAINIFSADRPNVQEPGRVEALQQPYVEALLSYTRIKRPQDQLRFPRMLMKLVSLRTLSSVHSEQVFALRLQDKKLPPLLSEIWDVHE
The data set can be described thus: Activity at LXRbeta assessed as coactivator peptide interaction with receptor ligand binding domain by scintillation proximity assay.

In data set [19] the target is T7, Oxysterols receptor LXR-beta (Homo sapiens) (UniProt P55055).
T7 sequence (whole entry): T6 sequence (P55055 whole entry)
The data set can be described thus: Activity at LXRbeta assessed as coactivator peptide interaction with receptor ligand binding domain by scintillation proximity assay relative to standard control.

Data set [20] is described as follows: Selectivity ratio of XC50 for LXRbeta to EC50 for human FXR.
Data set [21] in a line: Selectivity ratio of XC50 for RORalpha to EC50 for human FXR.
Data set [22] addresses T8, Oxysterols receptor LXR-alpha (Homo sapiens, UniProt Q13133).
T8 sequence (Q13133 whole entry): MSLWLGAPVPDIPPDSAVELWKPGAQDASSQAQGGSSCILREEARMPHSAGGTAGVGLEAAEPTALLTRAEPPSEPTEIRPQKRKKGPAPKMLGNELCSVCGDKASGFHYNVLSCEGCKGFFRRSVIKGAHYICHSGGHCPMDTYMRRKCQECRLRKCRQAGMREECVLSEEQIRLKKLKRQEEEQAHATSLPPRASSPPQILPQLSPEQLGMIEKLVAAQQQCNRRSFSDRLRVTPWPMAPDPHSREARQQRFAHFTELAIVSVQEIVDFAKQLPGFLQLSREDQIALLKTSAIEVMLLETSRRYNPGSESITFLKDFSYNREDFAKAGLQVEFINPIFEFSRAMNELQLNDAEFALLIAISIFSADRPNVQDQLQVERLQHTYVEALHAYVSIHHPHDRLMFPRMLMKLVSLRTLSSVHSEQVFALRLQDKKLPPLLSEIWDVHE
The data set can be described thus: Activity at LXRalpha assessed as coactivator peptide interaction with receptor ligand binding domain by FRET assay.

The target of data set [23] is T9, Oxysterols receptor LXR-alpha (Homo sapiens) (UniProt Q13133).
T9 sequence (whole entry): T8 sequence (Q13133 whole entry)
In words: Activity at LXRalpha assessed as coactivator peptide interaction with receptor ligand binding domain by FRET assay relative to standard control.

Consider `CC(C)c1onc(CNc2c(Cl)cccc2Cl)c1COc1ccc(/C=C/c2cccc(C(=O)O)c2)c(Cl)c1`, for which, in [1], the bioavailability worked out at 2.6%. Further, the %max in data set [2] amounted to 70%; in [8], 104%. In addition, in data set [3], the half-life stood at 2.33 h. In data set [4], this compound had a clearance of 0.96 L/h/kg. Also, the Vd in data set [5] is 2.1 L/kg. The EC50 in data set [6] was 0.14 µM; in data set [7] it was 0.072 µM.

As for `CC(C)c1onc(COc2c(Cl)cccc2Cl)c1COc1ccc(/C=C/c2cccc(C(=O)O)c2)c(Cl)c1`, the bioavailability in data set [1] was determined as 9.2%. The %max worked out at 89% in [2] and 102% in data set [8]. Moreover, in data set [3], the half-life was 2.17 h. The same compound had a clearance in [4] of 1.2 L/h/kg. Further, the Vd in [5] is 1.2 L/kg. For the same compound, the EC50 was 0.089 µM in data set [6] and 0.078 µM in [7].

As for `CC(C)c1onc(COc2cccc(Cl)c2)c1COc1ccc(/C=C/c2cccc(C(=O)O)c2)c(Cl)c1`, the %max in data set [2] was 42%; in data set [8], 51%. Moreover, the values for the EC50 in [7] and in [9] were 0.31 µM and 2 µM, respectively.

Take `CC(C)c1onc([C@H]2C[C@@H]2c2c(Cl)cccc2Cl)c1COc1ccc(/C=C/c2cccc(C(=O)O)c2)c(Cl)c1` (relative stereo): the EC50 in data set [7] is 2 µM; in data set [9], more than 10 µM. The %max in data set [8] came out at 38%.

As to `CC(C)c1onc(COc2c(Cl)cc(F)cc2Cl)c1COc1ccc(/C=C/c2cccc(C(=O)O)c2)c(Cl)c1`, in data set [1], the bioavailability came out at 1.9%. Further, the values for the %max in [2] and in data set [8] were 56% and 112%, respectively. For the same compound, the half-life in data set [3] amounted to 2.33 h. The same compound had a clearance in data set [4] of 0.9 L/h/kg. Moreover, the Vd in [5] stood at 1.4 L/kg. The EC50 in data set [7] turned out to be 0.087 µM; in [9], 0.54 µM.

As for `CC(C)c1onc(COc2cc(Cl)cc(Cl)c2)c1COc1ccc(/C=C/c2cccc(C(=O)O)c2)c(Cl)c1`, the EC50 in data set [7] is 1.1 µM; in data set [9], more than 10 µM. In data set [8], the %max was 40%.

With `CC(C)c1onc(-c2c(Cl)cccc2Cl)c1COc1ccc(/C=C/c2cccc(C(=O)O)c2)c(Cl)c1`, the %max in data set [2] and in [8] was 100% in each case. In data set [4], this compound displayed a clearance of 2.16 L/h/kg.

Take `CCC(CC)c1onc(-c2c(Cl)cccc2Cl)c1COc1ccc(/C=C/c2cccc(C(=O)O)c2)c(Cl)c1`: the %max in data set [2] came to 71%; in data set [8], 82%. For the same compound, the EC50 worked out at 2.2 µM in data set [7] and 0.28 µM in [9].

Turning to `CC(C)c1onc(COc2ccccc2Cl)c1COc1ccc(/C=C/c2cccc(C(=O)O)c2)c(Cl)c1`, the %max in data set [2] was determined as 71%; in data set [8], 82%. Also, the figures for the EC50 in data set [7] and in [9] were 0.46 µM and 0.082 µM, respectively.

For `CC(C)c1onc(C[S+]([O-])c2c(Cl)cccc2Cl)c1COc1ccc(/C=C/c2cccc(C(=O)O)c2)c(Cl)c1` (stereo unspecified), the %max turned out to be 46% in data set [10]; 100% in data set [2]; 101% in [19]; 33% in data set [23]; 110% in data set [8]. For the same compound, the Ratio in data set [11], in data set [14], in data set [17], in data set [20] and in data set [21] was 100 in each case. For the same compound, the XC50 in data set [12] is 4.2 µM; in [13], 0.96 µM; in data set [16], more than 10 µM; in data set [18] it was 2.5 µM; in [22], 1.4 µM. Besides, the Emax in data set [15] amounted to 100%. The EC50 in [6] is 0.072 µM; in [7], 0.028 µM.

Turning to `CC(C)c1onc(-c2c(Cl)cncc2Cl)c1COc1ccc(/C=C/c2cccc(C(=O)O)c2)c(Cl)c1`, the bioavailability in data set [1] came to 7.8%. The values for the %max in data set [2] and in data set [8] were 88% and 97%, respectively. Besides, the half-life in data set [3] was 0.867 h. In data set [4], this compound had a clearance of 2.88 L/h/kg. In addition, in [5], the Vd was 1.1 L/kg. The results for the EC50 in [6] and in data set [7] were 0.052 µM and 0.15 µM, respectively.
